Columns and labels:
Type in all cases: physicochemical
[1] = Absorption and emission (PL) spectra in THF solution; settings: for emission spectra peak / maximum absorption: 10 μM
Experimental: (§1) First, the absorption and emission spectra were recorded. From FIG. 3a, the maximum absorptions of TPE-TBT and TPA-TBT are located at 582 and 620 nm, respectively, which display a redshift because of the enhancement of D-A strength from TPE-TBT to TPA-TBT. In addition, the emission spectra of the two molecules peaked at 750 and 830 nm, respectively (FIG. 3b). […] The aggregation behaviors of the compounds were then investigated. After adding poor solvent water to the THE solution, the fluorescence intensities of the two luminogens are first reduced at low water fractions (0-50% of water) resulting from the twisted intramolecular charge transfer (TICT) effect.

[2] = Aggregation behaviour (AIE) in THF/water mixtures; settings: increasing water fraction
Experimental: as §1

[3] = Fluorescence quantum yield (QY)
Experimental: The fluorescence quantum yield (QY) of the two compounds in the solid state, NPs, THF, and other solvents, were also measured (FIG. 3d).
For better use in cancer theranostic, TPA-TBT and TPE-TBT were fabricated into nanoparticles (NPs) through the nanoprecipitation method using DSPE-PEG2000 as an encapsulation matrix. The hydrodynamic diameters of the two NPs were confirmed by dynamic light scattering (DLS). […] The UV/Vis absorption and fluorescence emission spectra of the two kinds of NPs were also measured, and the results are similar to that in the THF solutions. The fluorescence quantum yield (QY) of the two compounds in the solid state, NPs, THF, and other solvents, were also measured (FIG. 3d). […] ROS production efficiency and PCE were investigated to further explore the phototherapy potential of these AIEgens. We utilized a common ROS indicator Dichlorofluorescin Diace (H2DCF-DA), whose fluorescence can be sensitively activated by ROS, to indicate the overall ROS generation. From FIG. 3e, the fluorescence intensity of H2DCF-DA intensified rapidly in the presence of TPA-TBT NPs. Finally, it reached around 210-fold more robust than the initial intensity after 5 min upon white light irradiation, displaying a much higher ROS production efficiency than TPE-TBT NPs. […] While the PCE of TPE-TBT NPs is only 30%. Considering all the aspects, TPA-TBT NPs show longer fluorescence emission wavelength, higher ROS generation efficiency, and better photothermal efficiency. Therefore, TPA-TBT NPs are more promising for applications in the field of phototheranostic for synergistic cancer therapy.

Structure (SMILES) | Stokes shift [1] [nm] | emission spectra peak [1] [nm] | maximum absorption [1] [nm] | AIE intensity enhancement [2] [fold] | fluorescence quantum yield (QY) ([3]; THE solution / solution state) | fluorescence quantum yield (QY) ([3]; solid state) [%]
CCCCCCC(CCCC)Cc1cc(-c2ccc(N(c3ccc(OC)cc3)c3ccc(OC)cc3)cc2)sc1-c1c2c(c(-c3sc(-c4ccc(N(c5ccc(OC)cc5)c5ccc(OC)cc5)cc4)cc3CC(CCCC)CCCCCC)c3nn(CC(CC)CCCC)nc13)N=S=N2 (stereo not drawn) [TPA-TBT] | 210 | 830 | 620 | 3 | 5% | 13
CCCCCCC(CCCC)Cc1cc(-c2ccc(C(=C(c3ccc(OC)cc3)c3ccc(OC)cc3)c3ccccc3)cc2)sc1-c1c2c(c(-c3sc(-c4ccc(C(=C(c5ccc(OC)cc5)c5ccc(OC)cc5)c5ccccc5)cc4)cc3CC(CCCC)CCCCCC)c3nn(CC(CC)CCCC)nc13)N=S=N2 (stereo not drawn) [TPE-TBT] |  | 750 | 582 |  | remarkable QY | 
